pIC50: −log10 of the molar value. Where two headings read alike, the source gives them in different places. Where only a bound is given, the exact number is not on record here.

One test addresses hNAMPT protein (Homo sapiens (Human), UniProt P43490). Nature of the test: NAMPT enzyme assay (TR-FRET/HTRF, BodiPY ligand, anti 6His-Tb). It counts as binding. Conditions: for pIC50: read-out: IC50; for inhibition at 1 µM: read-out: Percent Inhibition. An excerpt: As discussed above, the invention provides compounds that are useful as inhibitors of the enzyme NAMPT. The NAMPT inhibition of a compound of the invention can be measured using a variety of methods known in the art. For example, the ability of a compound of the invention to inhibit NAMPT enzyme activity can be measured using a homogeneous time resolved fluorescence (HTRF) assay using hNAMPT protein and anti 6His-Tb in buffer treated with a compound of the invention (or control e.g., DMSO) and BodiPY ligand. The TR-FRET signal can be measured using a high throughput microplate reader (e.g., Pherastar). Excitation can be carried out at 320 nm. The percent inhibition value at a single concentration of compound of the invention can be calculated relative to a control treated sample. A concentration response curve can be generated for each compound of the invention and the curve fitted to generate an IC50 value. […] Cat. No. […] To this solution is added test compounds or vehicle control (DMSO) and BodiPY ligand (structure below). The plate is shaken for 1-2 min, sealed and incubated for 1 hour at rt in the dark. The TR-FRET signal is measured using BMG Pherastar (Lanthascreen protocol on BMG Pherastar). Excitation was carried out at 320 nm, and the ratio of emission of BodiPY (520 nm) to terbium (486 nm) was determined. Concentration response curves are generated by calculating the excitation increase in test compound-treated samples relative to DMSO-treated controls. For the assay method described above, test compound percent inhibition values at a single concentration are calculated relative to control (DMSO) treated samples. Compound concentration response curves are fitted to generate IC50 values from those curves. One skilled in the art will appreciate that these values generated either as percentage inhibition at a single concentration or IC50 values are subject to experimental variation.
(TR-FRET usually uses a lanthanide donor and a delayed reading to cut background.)

In a further test the test system is PC3 cells. Briefly: PC3 growth inhibition (Cell-titer glo, 72 hours). It counts as cell-based. Conditions: Homo sapiens, PC-3, PC3 cells, 72 hours, Cell-titer glo, read-out: Percent Inhibition (PC3 growth inhibition); for inhibition at 1.667 µM: compound concentration 1.667 μM; for inhibition at 1 µM: compound concentration 1 μM. The method, then:
The ability of a compound of the invention to inhibit the growth of cells can be measured using a variety of methods known in the art. For example, the ability of a compound of the invention to inhibit the growth of PC3 cells can be measured. PC3 cells can be plated and incubated overnight under CO2. For each measurement, a compound of the invention (or vehicle e.g., DMSO) can be diluted with AIM serum free medium and added to the cell plate. The cell plate can then be incubated for 72 h under CO2. Cell-titer glo solution can be added and the plates can be incubated protected from light and the amount of luminescences can be measured. Concentration response curves can be generated by calculating the luminescence increase in test compound treated samples relative to DMSO-treated controls. Percentage remaining viability values at a single concentration can be measured. Growth inhibition (GI50) or cell viability (LD50) values can be determined from those curves.
Compounds of the invention were assayed to measure PC3 growth inhibition at a concentration of 1 μM or 1.667 μM (Table 3). To measure PC3 growth inhibition, PC3 cells that were maintained in PRMI1640 growth medium (Life Technologies; Cat. No. 11875) at 37° C. under 5% CO2 are trypsinized and diluted at a density of 8×10^4 cells/ml, 25 ul per well of cells and plated in 384-well black tissue culture plate. The cells are incubated overnight at 37° C. under 5% CO2. For each measurement, a test compounds or vehicle control (DMSO) are diluted with AIM serum free medium and added to the cell plate. Incubate for 72 hours at 37° C. under 5% CO2. 25 μl Cell-titer glo solution (Promega; Cat. No. G8462) is added and the cell plates are incubated for 10 minutes protected from light. The luminescence is measured. Concentration response curves are generated by calculating the luminescence increase in test compound-treated samples relative to DMSO-treated controls. Percentage remaining viability values at a single concentration, growth inhibition (GI50) or cell viability (LD50) values are determined from those curves. One skilled in the art will appreciate that these values are subject to experimental variation.

Chain of hNAMPT protein (P43490 whole entry): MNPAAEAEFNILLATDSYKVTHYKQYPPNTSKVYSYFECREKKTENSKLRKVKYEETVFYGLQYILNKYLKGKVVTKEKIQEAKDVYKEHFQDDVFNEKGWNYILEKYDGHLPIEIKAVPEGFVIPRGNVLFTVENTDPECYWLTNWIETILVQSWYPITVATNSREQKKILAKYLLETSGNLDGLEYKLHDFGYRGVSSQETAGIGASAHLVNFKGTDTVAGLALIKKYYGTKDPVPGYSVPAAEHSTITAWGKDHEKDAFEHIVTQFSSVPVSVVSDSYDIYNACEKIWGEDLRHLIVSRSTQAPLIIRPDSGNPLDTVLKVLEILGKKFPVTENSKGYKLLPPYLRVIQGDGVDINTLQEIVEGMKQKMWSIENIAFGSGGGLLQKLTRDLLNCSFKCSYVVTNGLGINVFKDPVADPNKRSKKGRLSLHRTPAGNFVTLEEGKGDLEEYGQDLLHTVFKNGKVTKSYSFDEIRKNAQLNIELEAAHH

A word on the pIC50: it is −log10 of the IC50, conventionally taken in molar units. Broadly, the inhibition is the change of the read-out against control, counted positive when it falls. Consider `O=C(NCCc1ncc[nH]1)c1ccc2nc(N3CCCCC3)c(-c3ccc(F)cc3)nc2c1` [Compound I-1, 3-(4-Fluorophenyl)-N-[2-(1H-imidazol-2-yl)ethyl]-2-(piperidin-1-yl)quinoxaline-6-carboxamide], for which the pIC50 at hNAMPT protein (NAMPT IC50 range class) was 6.00 to 6.30. Further, the inhibition at 1 µM on hNAMPT protein (compound concentration 1 μM) stood at 51%. The inhibition at 1.667 µM in the test on PC3 cells was found to be 3%.

As for `CC(=O)Nc1cccc(-c2nc3ccc(C(=O)NCCCn4ccnc4)cc3nc2-c2ccccc2)c1` [Compound I-2, 2-(3-acetamidophenyl)-N-[3-(1H-imidazol-1-yl)propyl]-3-phenylquinoxaline-6-carboxamide], on hNAMPT protein (NAMPT IC50 range class), the pIC50 is 6.30 to 7.00. Further, the values for the inhibition at 1 µM on hNAMPT protein (compound concentration 1 μM) and with PC3 cells were 77% and -7%, respectively.

Take `CN1CC=C(c2nc3cc(C(=O)NCCCn4ccnc4)ccc3nc2-c2ccccc2)CC1` [Compound I-3, N-[3-(1H-imidazol-1-yl)propyl]-3-(1-methyl-1,2,3,6-tetrahydropyridin-4-yl)-2-phenylquinoxaline-6-carboxamide]: the negative logarithm of the IC50 (pIC50) on hNAMPT protein (NAMPT IC50 range class) is 5.00 to 5.70. The results for the inhibition at 1 µM at hNAMPT protein (compound concentration 1 μM) and in the test on PC3 cells were 9% and 39%, respectively.

As for `Cn1cncc1CCNC(=O)c1ccc2nc(N3CCCCC3)c(-c3ccc(F)cc3)nc2c1` [Compound I-4, 3-(4-fluorophenyl)-N-[2-(1-methyl-1H-imidazol-5-yl)ethyl]-2-(piperidin-1-yl)quinoxaline-6-carboxamide], the pIC50 at hNAMPT protein (NAMPT IC50 range class) is above 7.00. Besides, on hNAMPT protein (compound concentration 1 μM), the inhibition at 1 µM came out at 93%. Also, the inhibition at 1.667 µM with PC3 cells came to 2%.

As to `O=C(NCCCn1ccnc1)c1ccc2nc(-c3ccncc3)c(-c3ccccc3)nc2c1` [Compound I-5, N-[3-(1H-imidazol-1-yl)propyl]-3-phenyl-2-(pyridin-4-yl)quinoxaline-6-carboxamide], the negative logarithm of the IC50 (pIC50) at hNAMPT protein (NAMPT IC50 range class) is 6.00 to 6.30. Further, the inhibition at 1 µM on hNAMPT protein (compound concentration 1 μM) was 53%; in the test on PC3 cells, -7%.

On to `NC(=O)c1ccc(-c2nc3cc(C(=O)NCCCn4ccnc4)ccc3nc2-c2ccccc2)cc1` [Compound I-6, 3-(4-carbamoylphenyl)-N-[3-(1H-imidazol-1-yl)propyl]-2-phenylquinoxaline-6-carboxamide], for which, at hNAMPT protein (NAMPT IC50 range class), the negative-log IC50 (pIC50) is 5.00 to 5.70. The inhibition at 1 µM is 20% on hNAMPT protein (compound concentration 1 μM) and 91% with PC3 cells.

As to `O=C1CN(c2nc3ccc(C(=O)NCCCn4ccnc4)cc3nc2-c2ccccc2)CN1` [Compound I-7, N-[3-(1H-imidazol-1-yl)propyl]-2-(4-oxoimidazolidin-1-yl)-3-phenylquinoxaline-6-carboxamide], the negative logarithm of the IC50 (pIC50) on hNAMPT protein (NAMPT IC50 range class) is 5.00 to 5.70. In addition, the inhibition at 1 µM on hNAMPT protein (compound concentration 1 μM) came to 12%; in the test with PC3 cells, 105%.

As for `Cc1ccc(CCCNC(=O)c2ccc3nc(N4CCOCC4)c(-c4ccc(F)cc4)nc3c2)cn1` [Compound I-21, 3-(4-Fluorophenyl)-N-[3-(6-methylpyridin-3-yl)propyl]-2-(morpholin-4-yl)quinoxaline-6-carboxamide], the negative-log IC50 (pIC50) at hNAMPT protein (NAMPT IC50 range class) is 6.00 to 6.30. Also, at hNAMPT protein, the inhibition at 1 µM turned out to be 50%.

Take `O=C(c1ccc2nc(-c3ccc(F)cc3)c(-c3ccc(F)cc3)nc2c1)N1CCC(c2cnccn2)C1` (stereo not shown) [Compound I-40, [2,3-bis(4-fluorophenyl)quinoxalin-6-yl][3-(pyrazin-2-yl)pyrrolidin-1-yl]methanone]: the pIC50 at hNAMPT protein (NAMPT IC50 range class) was 5.00 to 5.70. Also, the inhibition at 1 µM on hNAMPT protein (compound concentration 1 μM) is 33%.

As to `O=C(NCCc1ncc[nH]1)c1ccc2nc(N3CCC(N4CCOCC4)CC3)c(-c3ccccc3)nc2c1` [Compound I-71, N-[2-(1H-imidazol-2-yl)ethyl]-2-[4-(morpholin-4-yl)piperidin-1-yl]-3-phenylquinoxaline-6-carboxamide], at hNAMPT protein (NAMPT IC50 range class), the negative logarithm of the IC50 (pIC50) was 6.30 to 7.00. Besides, the inhibition at 1 µM at hNAMPT protein (compound concentration 1 μM) came out at 81%.

Turning to `O=C(c1ccc2nc(-c3ccc(F)cc3)c(-c3ccc(F)cc3)nc2c1)N1CCC(c2ccncc2)C1` (stereo not shown) [Compound I-98, [2,3-bis(4-fluorophenyl)quinoxalin-6-yl][3-(pyridin-4-yl)pyrrolidin-1-yl]methanone], the pIC50 at hNAMPT protein (NAMPT IC50 range class) was 5.70 to 6.00. The inhibition at 1 µM on hNAMPT protein (compound concentration 1 μM) was found to be 41%.

For the compound `O=C(c1ccc2nc(-c3ccc(F)cc3)c(-c3ccc(F)cc3)nc2c1)N1CC(c2ccccn2)C1` [Compound I-110, [2,3-bis(4-fluorophenyl)quinoxalin-6-yl][3-(pyridin-2-yl)azetidin-1-yl]methanone], at hNAMPT protein (NAMPT IC50 range class), the negative logarithm of the IC50 (pIC50) is 6.00 to 6.30. Also, at hNAMPT protein (compound concentration 1 μM), the inhibition at 1 µM stood at 66%.

For the compound `O=C(c1ccc2nc(-c3ccc(F)cc3)c(-c3ccc(F)cc3)nc2c1)N1CCc2cnccc2C1` [Compound I-160, [2,3-bis(4-fluorophenyl)quinoxalin-6-yl](3,4-dihydro-2,6-naphthyridin-2(1H)-yl)methanone], at hNAMPT protein (NAMPT IC50 range class), the pIC50 is 5.00 to 5.70. In addition, the inhibition at 1 µM on hNAMPT protein (compound concentration 1 μM) was determined as 45%.

With `Cc1ccc(CCCNC(=O)c2ccc3nc(N4CCCCC4)c(-c4ccc(F)cc4)nc3c2)cn1` [Compound I-185, 3-(4-fluorophenyl)-N-[3-(6-methylpyridin-3-yl)propyl]-2-(piperidin-1-yl)quinoxaline-6-carboxamide], on hNAMPT protein (NAMPT IC50 range class), the negative-log IC50 (pIC50) is 6.00 to 6.30. Moreover, the inhibition at 1 µM on hNAMPT protein (compound concentration 1 μM) was 57%.

With `O=C(c1ccc2nc(-c3ccc(F)cc3)c(-c3ccc(F)cc3)nc2c1)N1CCC(c2ccncc2)CC1` [Compound I-186, [2,3-bis(4-fluorophenyl)quinoxalin-6-yl][4-(pyridin-4-yl)piperidin-1-yl]methanone], the pIC50 on hNAMPT protein (NAMPT IC50 range class) is 5.00 to 5.70. On hNAMPT protein (compound concentration 1 μM), the inhibition at 1 µM worked out at 19%.

Consider `O=C(c1ccc2nc(-c3ccc(F)cc3)c(-c3ccc(F)cc3)nc2c1)N1CCCC1Cc1cccnc1` (stereo not shown) [Compound I-246, [2,3-bis(4-fluorophenyl)quinoxalin-6-yl][2-(pyridin-3-ylmethyl)pyrrolidin-1-yl]methanone], for which, at hNAMPT protein (NAMPT IC50 range class), the negative logarithm of the IC50 (pIC50) is 5.00 to 5.70. Besides, the inhibition at 1 µM at hNAMPT protein (compound concentration 1 μM) came to 30%.

On to `O=C(c1ccc2nc(-c3ccc(F)cc3)c(-c3ccc(F)cc3)nc2c1)N1CC(n2cccn2)C1` [Compound I-249, [2,3-bis(4-fluorophenyl)quinoxalin-6-yl][3-(1H-pyrazol-1-yl)azetidin-1-yl]methanone], for which the negative-log IC50 (pIC50) on hNAMPT protein (NAMPT IC50 range class) was 5.70 to 6.00. The inhibition at 1 µM on hNAMPT protein (compound concentration 1 μM) is 45%.

On to `O=C(NCCCn1ccnc1)c1ccc2nc(-c3ccccc3Cl)c(-c3ccccc3Cl)nc2c1` [Compound I-260, 2,3-bis(2-chlorophenyl)-N-[3-(1H-imidazol-1-yl)propyl]quinoxaline-6-carboxamide], for which the pIC50 on hNAMPT protein (NAMPT IC50 range class) was 5.00 to 5.70. The inhibition at 1 µM on hNAMPT protein (compound concentration 1 μM) was 19%.

On to `O=C(NCCc1c[nH]c2ccccc12)c1ccc2nc(-c3ccc(F)cc3)c(-c3ccc(F)cc3)nc2c1` [Compound I-293, 2,3-bis(4-fluorophenyl)-N-[2-(1H-indol-3-yl)ethyl]quinoxaline-6-carboxamide], for which the pIC50 on hNAMPT protein (NAMPT IC50 range class) was 5.00 to 5.70. On hNAMPT protein (compound concentration 1 μM), the inhibition at 1 µM amounted to 26%.

On to `O=C(c1ccc2nc(-c3ccc(F)cc3)c(-c3ccc(F)cc3)nc2c1)N1CCC(c2ncccn2)C1` (stereo not shown) [Compound I-294, [2,3-bis(4-fluorophenyl)quinoxalin-6-yl][3-(pyrimidin-2-yl)pyrrolidin-1-yl]methanone], for which the pIC50 at hNAMPT protein (NAMPT IC50 range class) was 5.00 to 5.70. Besides, the inhibition at 1 µM at hNAMPT protein (compound concentration 1 μM) worked out at 22%.

With `COc1cccc(-c2nc3cc(C(=O)NCCCc4ncc[nH]4)ccc3nc2-c2ccc(F)cc2)n1` [Compound I-495, 2-(4-fluorophenyl)-N-[3-(1H-imidazol-2-yl)propyl]-3-(6-methoxypyridin-2-yl)quinoxaline-6-carboxamide], the inhibition at 1 µM on hNAMPT protein (NAMPT inhibition at compound concentration 1 μM) amounted to 96%. Also, the negative logarithm of the IC50 (pIC50) on hNAMPT protein (NAMPT inhibition, IC50 range class) was above 7.00.

For the origin of these results see US10144742B2 (Millennium Pharmaceuticals, Inc., priority 2014, dated 2018).
